Laboratory results as given in PMC4704049, “Potential Dual Role of Eugenol in Inhibiting Advanced Glycation End Products in Diabetes: Proteomic and Mechanistic Insights” (Scientific Reports, 2016).

Biological target: T1, bovine serum albumin (BSA) (Bos taurus, UniProt P02769)
T1 construct: gene ALB
Experiment: intrinsic fluorescence quenching (eugenol […])
Format: binding

T1 sequence (P02769 25-607): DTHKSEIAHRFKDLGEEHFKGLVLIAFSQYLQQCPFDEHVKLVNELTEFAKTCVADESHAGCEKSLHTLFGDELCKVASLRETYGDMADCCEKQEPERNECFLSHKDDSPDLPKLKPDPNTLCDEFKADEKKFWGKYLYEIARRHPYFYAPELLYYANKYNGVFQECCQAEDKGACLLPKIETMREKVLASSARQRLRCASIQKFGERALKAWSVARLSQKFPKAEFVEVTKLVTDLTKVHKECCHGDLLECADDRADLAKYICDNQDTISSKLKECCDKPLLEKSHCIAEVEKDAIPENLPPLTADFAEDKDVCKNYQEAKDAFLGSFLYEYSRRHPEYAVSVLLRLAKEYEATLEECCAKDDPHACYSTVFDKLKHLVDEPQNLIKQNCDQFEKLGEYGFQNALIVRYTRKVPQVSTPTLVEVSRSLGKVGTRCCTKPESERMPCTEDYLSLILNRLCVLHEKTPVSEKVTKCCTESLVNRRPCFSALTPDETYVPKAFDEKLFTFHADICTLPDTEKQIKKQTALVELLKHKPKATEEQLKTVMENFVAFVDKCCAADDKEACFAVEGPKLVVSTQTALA

C=CCc1ccc(O)c(OC)c1 [EUG, eugenol]
intrinsic fluorescence quenching (eugenol 1-50 mM): In the intrinsic fluorescence assay, it was evident that eugenol binds to BSA in a concentration dependent manner
